The assay concerns B6C3F1 mice, B16 melanoma ip, median survival T/C. As to the kind of experiment: NCI In Vivo Anticancer Drug Screen. Data for tumor model B16 Melanoma (intraperitoneal) in B6C3F1 mice. To be noted: endpoint: median survival time, higher = longer survival. Summed up: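 Antitumor effect was judged in mice with transplanted tumors by dividing the treated group's survival measure by that of vehicle controls.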

[1] abbreviates: dose: 6.25 mg/kg/injection, schedule: Q01DX009 (ip), vehicle: Klucel (hydroxypropylcellulose) (HPC).
[2] abbreviates: dose: 12.5 mg/kg/injection, schedule: Q01DX009 (ip), vehicle: Klucel (hydroxypropylcellulose) (HPC).
Setting [3] is: dose: 25.0 mg/kg/injection, schedule: Q01DX009 (ip), vehicle: Klucel (hydroxypropylcellulose) (HPC).
Setting [4] is: dose: 50.0 mg/kg/injection, schedule: Q01DX009 (ip), vehicle: Klucel (hydroxypropylcellulose) (HPC).
Where [5] appears, read: dose: 100.0 mg/kg/injection, schedule: Q01DX009 (ip), vehicle: Klucel (hydroxypropylcellulose) (HPC).
Where [6] appears, read: dose: 25.0 mg/kg/injection, schedule: Q01DX009 (ip), vehicle: saline with Tween-80.
Setting [7] is: dose: 50.0 mg/kg/injection, schedule: Q01DX009 (ip), vehicle: saline with Tween-80.
Where [8] appears, read: dose: 100.0 mg/kg/injection, schedule: Q01DX009 (ip), vehicle: saline with Tween-80.
Where [9] appears, read: dose: 12.5 mg/kg/injection, schedule: Q01DX009 (ip), vehicle: saline.
Where [10] appears, read: dose: 25.0 mg/kg/injection, schedule: Q01DX009 (ip), vehicle: saline.
Setting [11] is: dose: 50.0 mg/kg/injection, schedule: Q01DX009 (ip), vehicle: saline.
The mark [12] stands for this setting: dose: 100.0 mg/kg/injection, schedule: Q01DX009 (ip), vehicle: saline.
The mark [13] stands for this setting: dose: 12.5 mg/kg/injection, schedule: Q01DX009 (ip), vehicle: saline with Tween-80.
Where [14] appears, read: dose: 25.0 mg/kg/injection, schedule: Q01DX009 (ip), vehicle: distilled water + Tween-80.

These results are taken from PubChem BioAssay AID200 (DTP/NCI, 2004).

Values joined by “and” are separate entries in the source; they are usually repeats but may differ in a detail not shown here. Identical values can stand only once. Toxic doses and inconclusive results are not listed.

Turning to `O=C(O)CSc1c(Cl)c(=O)oc2ccc(Cl)cc12`, the T/C is 97 % of control under setting [1]; 95 % of control under setting [2]; 101 % of control under setting [3]; 107 % of control under setting [4]; 116 % of control under setting [5].

With `CC(=O)CC(c1ccccc1)c1c(O)c2ccccc2oc1=O` (stereo unspecified), the T/C reads like this: (dose: 0.05 mg/kg/injection, schedule: Q01DX009 (ip), vehicle: Klucel (hydroxypropylcellulose) (HPC)) 95 % of control; (dose: 0.05 mg/kg/injection, schedule: Q01DX009 (ip), vehicle: saline with Tween-80) 121 % of control and 106 % of control; (dose: 0.1 mg/kg/injection, schedule: Q01DX009 (ip), vehicle: Klucel (hydroxypropylcellulose) (HPC)) 104 % of control; (dose: 0.1 mg/kg/injection, schedule: Q01DX009 (ip), vehicle: saline with Tween-80) 91 % of control; (dose: 0.2 mg/kg/injection, schedule: Q01DX009 (ip), vehicle: Klucel (hydroxypropylcellulose) (HPC)) 93 % of control; (dose: 0.2 mg/kg/injection, schedule: Q01DX009 (ip), vehicle: saline with Tween-80) 124 % of control and 87 % of control. The T/C runs as follows: (dose: 0.4 mg/kg/injection, schedule: Q01DX009 (ip), vehicle: Klucel (hydroxypropylcellulose) (HPC)) 108 % of control; (dose: 0.4 mg/kg/injection, schedule: Q01DX009 (ip), vehicle: saline with Tween-80) 111 % of control; (dose: 0.8 mg/kg/injection, schedule: Q01DX009 (ip), vehicle: Klucel (hydroxypropylcellulose) (HPC)) 98 % of control; (dose: 0.8 mg/kg/injection, schedule: Q01DX009 (ip), vehicle: saline with Tween-80) 103 % of control.

For `COC(=O)NC1C(C)OC(OC2C/C=C(/C)C3C=CC4C(OC5CC(OC6CC(OC7CC(O)C(O)C(C)O7)C(OC7CC(O)C(OC)C(C)O7)C(C)O6)C(O)C(C)O5)C(C)CC(C)C4C3(C)/C(O)=C3\C(=O)OC4(CC(C)C(CO)=CC4/C=C\2C)C3=O)CC1(C)[N+](=O)[O-]` (stereo unspecified), the T/C (dose: 6.25 mg/kg/injection, schedule: Q01DX009 (ip), vehicle: water) was 117 % of control and 100 % of control; the T/C (dose: 12.5 mg/kg/injection, schedule: Q01DX009 (ip), vehicle: water) was 108 % of control and 122 % of control; the T/C (dose: 12.5 mg/kg/injection, schedule: Q01DX009 (sc), vehicle: water) is 92 % of control; the T/C (dose: 25.0 mg/kg/injection, schedule: Q01DX009 (ip), vehicle: water) was 116 % of control; the T/C (dose: 25.0 mg/kg/injection, schedule: Q01DX009 (sc), vehicle: water) is 91 % of control; the T/C (dose: 50.0 mg/kg/injection, schedule: Q01DX009 (sc), vehicle: water) was 113 % of control. The T/C is, setting by setting: (dose: 100.0 mg/kg/injection, schedule: Q01DX009 (sc), vehicle: water) 89 % of control; (dose: 200.0 mg/kg/injection, schedule: Q01DX009 (sc), vehicle: water) 98 % of control.

As for `CS(=O)(=O)OCCN(CCOS(C)(=O)=O)c1ccc(C=Nc2ccc(-c3csc(COc4ccccc4)n3)cc2)cc1`, the T/C is 114 % of control under setting [2] and 162 % of control under setting [4].

For `CC1Nc2ccccc2NC1C` (stereo unspecified), the T/C runs as follows: under setting [6], 108 % of control; under setting [7], 98 % of control; under setting [8], 96 % of control.

Take `O=S1(=O)CS(=O)(=O)OCCO1`: the T/C was 111 % of control under setting [1]; 153 % of control and 161 % of control under setting [2]; 117 % of control under setting [4].

As to `NC1=NC(=O)N2CC12` (stereo unspecified), the T/C is, setting by setting: under setting [9], 105 % of control; under setting [10], 95 % of control; under setting [11], 95 % of control; under setting [12], 89 % of control.

Consider `O=C1c2cccc(NCCCNCCO)c2C(=O)c2cccc(NCCCNCCO)c21`, for which the T/C reads like this: (dose: 6.25 mg/kg/injection, schedule: Q01DX009 (ip), vehicle: acid diluted with saline) 102 % of control; (dose: 12.5 mg/kg/injection, schedule: Q01DX009 (ip), vehicle: acid diluted with saline) 108 % of control; (dose: 25.0 mg/kg/injection, schedule: Q01DX009 (ip), vehicle: acid diluted with saline) 154 % of control.

Turning to `CCCCNC(C)(C)COC(=O)/C=C/c1ccc(OCCCC)cc1`, the T/C under setting [13] is 98 % of control, the T/C under setting [6] is 93 % of control and the T/C under setting [7] is 90 % of control.

As to `CC(C)CC(NC=O)C(=O)O` (stereo unspecified), the T/C under setting [3] is 103 % of control; the T/C under setting [4] was 103 % of control; the T/C under setting [5] was 92 % of control and 100 % of control.

Take `CCCCCCCCCCNCCS`: the T/C (dose: 5.0 mg/kg/injection, schedule: Q01DX009 (ip), vehicle: Klucel (hydroxypropylcellulose) (HPC)) is 88 % of control; the T/C (dose: 10.0 mg/kg/injection, schedule: Q01DX009 (ip), vehicle: Klucel (hydroxypropylcellulose) (HPC)) was 99 % of control; the T/C (dose: 20.0 mg/kg/injection, schedule: Q01DX009 (ip), vehicle: Klucel (hydroxypropylcellulose) (HPC)) is 104 % of control.

On to `CN(C)c1nc(N(C)C)nc(N(C)C)n1`, for which the T/C under setting [13] was 88 % of control.

Consider `C[As](C)SCCC(N)C(=O)NC(CCS[As](C)C)C(=O)O` (stereo unspecified), for which the T/C is 86 % of control under setting [1], 91 % of control under setting [2], 96 % of control under setting [3] and 96 % of control under setting [4].

Take `O=C(O)CNC(=O)CNC(=O)CNC(=O)CNC(=O)CNC(=O)OCc1ccccc1`: the T/C is 111 % of control under setting [5]; 96 % of control (dose: 200.0 mg/kg/injection, schedule: Q01DX009 (ip), vehicle: Klucel (hydroxypropylcellulose) (HPC)); 97 % of control (dose: 400.0 mg/kg/injection, schedule: Q01DX009 (ip), vehicle: Klucel (hydroxypropylcellulose) (HPC)).

Consider `CC1OC(=O)C(C(C)C)NC(=O)C(C(C)C)OC(=O)C(C(C)C)NC(=O)C(C)OC(=O)C(C(C)C)NC(=O)C(C(C)C)OC(=O)C(C(C)C)NC(=O)C(C)OC(=O)C(C(C)C)NC(=O)C(C(C)C)OC(=O)C(C(C)C)NC1=O` (stereo unspecified), for which the T/C was 104 % of control (dose: 0.75 mg/kg/injection, schedule: Q01DX009 (oral), vehicle: Klucel (hydroxypropylcellulose) (HPC)); 104 % of control (dose: 1.5 mg/kg/injection, schedule: Q01DX009 (oral), vehicle: Klucel (hydroxypropylcellulose) (HPC)); 105 % of control (dose: 3.0 mg/kg/injection, schedule: Q01DX009 (oral), vehicle: Klucel (hydroxypropylcellulose) (HPC)); 100 % of control (dose: 6.0 mg/kg/injection, schedule: Q01DX009 (oral), vehicle: Klucel (hydroxypropylcellulose) (HPC)); 105 % of control (dose: 12.0 mg/kg/injection, schedule: Q01DX009 (oral), vehicle: Klucel (hydroxypropylcellulose) (HPC)); 104 % of control (dose: 24.0 mg/kg/injection, schedule: Q01DX009 (oral), vehicle: Klucel (hydroxypropylcellulose) (HPC)).

Consider `CC(=O)c1ccc(C)cc1C`, for which the T/C by setting is: under setting [6], 105 % of control; under setting [7], 92 % of control; under setting [8], 98 % of control.

In the case of `Cc1cc(NCCCCCCCCNc2cc(C)nc3cc(N(C)C)ccc23)c2ccc(N(C)C)cc2n1`, the T/C by setting is: (dose: 3.12 mg/kg/injection, schedule: Q01DX009 (ip), vehicle: distilled water + Tween-80) 105 % of control; (dose: 6.25 mg/kg/injection, schedule: Q01DX009 (ip), vehicle: distilled water + Tween-80) 115 % of control; under setting [14], 121 % of control.

As to `CC(C)(C)c1ccc(C(=O)N2CCOC23CCCCC3)cc1`, the T/C was 91 % of control and 101 % of control under setting [7]; 98 % of control and 107 % of control under setting [8]; 94 % of control and 104 % of control (dose: 200.0 mg/kg/injection, schedule: Q01DX009 (ip), vehicle: saline with Tween-80); 91 % of control and 104 % of control (dose: 400.0 mg/kg/injection, schedule: Q01DX009 (ip), vehicle: saline with Tween-80); 92 % of control and 98 % of control (dose: 800.0 mg/kg/injection, schedule: Q01DX009 (ip), vehicle: saline with Tween-80).

Take `Nc1nc(/C=C(/O)c2ccccc2)c2ncn(C3OC(CO)C(O)C3O)c2n1` (stereo unspecified): the T/C reads like this: (dose: 12.5 mg/kg/injection, schedule: Q01DX009 (ip), vehicle: distilled water + Tween-80) 103 % of control; under setting [9], 102 % of control; under setting [14], 101 % of control; under setting [10], 101 % of control; (dose: 50.0 mg/kg/injection, schedule: Q01DX009 (ip), vehicle: distilled water + Tween-80) 95 % of control; under setting [11], 111 % of control. Besides, the T/C by setting is: (dose: 100.0 mg/kg/injection, schedule: Q01DX009 (ip), vehicle: distilled water + Tween-80) 101 % of control; under setting [12], 101 % of control; (dose: 200.0 mg/kg/injection, schedule: Q01DX009 (ip), vehicle: saline) 103 % of control.
